In patent US7202261B2, “Calcilytic compounds” (NPS Pharmaceuticals, Inc., priority 1996, dated 2007):
Counter-ions that a name gives are not always drawn.

Molecular target: T1, human calcium receptor (Homo sapiens, UniProt P41180)
T1 construct: expressed in transfected cells
T1 sequence (P41180 20-1078): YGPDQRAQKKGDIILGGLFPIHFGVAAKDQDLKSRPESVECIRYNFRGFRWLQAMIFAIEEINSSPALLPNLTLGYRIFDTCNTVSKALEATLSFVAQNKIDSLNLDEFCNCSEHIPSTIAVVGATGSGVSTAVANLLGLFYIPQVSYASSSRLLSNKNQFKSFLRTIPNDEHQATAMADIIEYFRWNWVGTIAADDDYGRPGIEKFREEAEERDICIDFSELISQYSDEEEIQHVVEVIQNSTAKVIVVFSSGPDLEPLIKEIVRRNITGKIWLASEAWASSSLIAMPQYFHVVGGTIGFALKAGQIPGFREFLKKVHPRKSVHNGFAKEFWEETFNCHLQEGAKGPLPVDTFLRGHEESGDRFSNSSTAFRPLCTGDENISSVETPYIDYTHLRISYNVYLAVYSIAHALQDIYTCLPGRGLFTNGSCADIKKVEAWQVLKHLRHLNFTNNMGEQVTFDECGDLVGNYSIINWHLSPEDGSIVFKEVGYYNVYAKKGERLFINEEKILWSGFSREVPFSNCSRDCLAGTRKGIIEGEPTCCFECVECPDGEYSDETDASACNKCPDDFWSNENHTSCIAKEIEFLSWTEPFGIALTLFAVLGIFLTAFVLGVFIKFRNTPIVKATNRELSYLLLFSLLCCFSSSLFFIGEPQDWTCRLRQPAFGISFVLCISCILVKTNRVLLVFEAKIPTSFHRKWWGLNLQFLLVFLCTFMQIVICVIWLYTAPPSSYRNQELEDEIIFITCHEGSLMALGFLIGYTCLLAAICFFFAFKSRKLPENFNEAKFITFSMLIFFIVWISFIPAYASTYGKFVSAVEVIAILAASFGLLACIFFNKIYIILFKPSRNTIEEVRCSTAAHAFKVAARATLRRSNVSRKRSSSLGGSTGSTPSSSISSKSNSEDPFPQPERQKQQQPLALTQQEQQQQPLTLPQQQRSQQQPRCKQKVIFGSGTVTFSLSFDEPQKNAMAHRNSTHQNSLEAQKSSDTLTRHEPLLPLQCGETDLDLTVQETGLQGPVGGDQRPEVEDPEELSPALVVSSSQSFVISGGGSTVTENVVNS
Assay: Calcium Receptor Inhibitor Assay
Format: cell-based
Conditions: not given
Procedure, shortened: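 Intracellular Ca^2+ measured with fluo-3 at 37° C in stirred cell suspension. Buffer held 1 mM CaCl2 and 1 mg/mL D-glucose. Compound or vehicle added 90 seconds before extracellular Ca^2+ was raised from 1 to 2 mM, and calcilytic activity scored as concentration-dependent block of the intracellular Ca^2+ rise.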

Compound COc1ccc(CC(C)(C)NCCCCc2ccccc2)cc1 [Compound 24, N-(4-phenylbutyl)-1,1-dimethyl-2-(4-methoxyphenyl)ethylamine] has an IC50 of over 50 µM.

Same assay, conditions: HEK 293 4.0–7 cells stably expressing the human calcium receptor; fluo-3; read-out: IC50 for blocking increases of intracellular Ca2+ elicited by extracellular Ca2+

COc1ccc(CC(C)(C)NCC(O)COc2ccccc2C)cc1 (stereo not shown) [Compound 8, N-[2-Hydroxy-3-(2-methylphenoxy)propyl]-1,1-dimethyl-2-(4-methoxyphenyl)ethylamine Hydrochloride] and COc1ccc(CC(C)(C)NCC(O)COc2ccccc2Cl)cc1 (stereo not shown) [Compound 40, N-[2-Hydroxy-3-(2-chlorophenoxy)propyl]-1,1-dimethyl-2-(4-methoxyphenyl)ethylamine Hydrochloride] cannot be ordered by IC50: under 10 µM for the first, under 1 µM for the second.

COc1ccc(CC(C)(C)NCC(O)COc2cccc3c(OC)cccc23)cc1 (stereo not shown) [Compound 130, N-[2-hydroxy-3-(5-methoxy-1-napthoxy)propyl]-1,1-dimethyl-2-(4-methoxyphenyl)ethylamine Hydrochloride] and COc1ccc(CC(C)(C)NCC(O)COc2cccc3ccccc23)cc1 (stereo not shown) [Compound 19, N-[2-Hydroxy-3-(1-naphthoxy)propyl]-1,1-dimethyl-2-(4-methoxyphenyl)ethylamine Hydrochloride] cannot be ordered by IC50: under 1 µM for the first, under 1 µM for the second.

COc1ccc(CC(C)(C)NCC(O)COc2ccc(C(C)C)cc2)cc1 (stereo not shown) [Compound 145, N-[2-hydroxy-3-(4-iso-propylphenoxy)propyl]-1,1-dimethyl-2-(4-methoxyphenyl)ethylamine Hydrochloride] and COc1ccc(CC(C)(C)NCC(O)COc2ccc(C(C)(C)C)cc2)cc1 (stereo not shown) [Compound 6, N-[2-Hydroxy-3-(4-t-butylphenoxy)propyl]-1,1-dimethyl-2-(4-methoxyphenyl)ethylamine Hydrochloride] cannot be ordered by IC50: under 1 µM for the first, under 1 µM for the second.

COc1ccc(CC(C)(C)NCC(O)COc2cccc(C(F)(F)F)c2)cc1 (stereo not shown) [Compound 46, N-[2-Hydroxy-3-(3-trifluoromethylphenoxy)propyl]-1,1-dimethyl-2-(4-methoxyphenyl)ethylamine Hydrochloride] and COc1ccc(CC(C)(C)NCC(O)COc2cccc(C#N)c2)cc1 (stereo not shown) [Compound 160, N-[2-hydroxy-3-(3-cyanophenoxy)propyl]-1,1-dimethyl-2-(4-methoxyphenyl)ethylamine Hydrochloride] cannot be ordered by IC50: under 1 µM for the first, under 1 µM for the second.

COc1ccc(CC(C)(C)NCC(O)COCC23CC4CC(CC(C4)C2)C3)cc1 (stereo not shown) [Compound 74, N-[2-Hydroxy-3-(1-adamantylmethoxy)propyl]-1,1-dimethyl-2-(4-methoxyphenyl)ethylamine Hydrochloride] and CCc1cccc(OCC(O)CNC(C)(C)Cc2ccc(OC)cc2)c1 (stereo not shown) [Compound 150, N-[2-Hydroxy-3-(3-ethylphenoxy)propyl)-1,1-dimethyl-2-(4-methoxyphenyl)ethylamine Hydrochloride] cannot be ordered by IC50: under 1 µM for the first, under 1 µM for the second.

Going from COc1ccc(CC(C)(C)NCC(O)COc2ccccc2NC(C)=O)cc1 (stereo not shown) [Compound 52, N-[2-hydroxy-3-(2-acetamidophenoxy)propyl]-1,1-dimethyl-2(4-methoxyphenyl)ethylamine] to COc1ccc(CCC(C)(C)NCC(O)COc2ccccc2)cc1 (stereo not shown) [Compound 90, N-(2-Hydroxy-3-phenoxypropyl)-1,1-dimethyl-3-(4-methoxyphenyl)propylamine Hydrochloride], the IC50 falls from over 50 µM to under 50 µM.

CCCc1ccc(OCC(O)CNC(C)(C)Cc2ccc(OC)cc2)cc1 (stereo not shown) [Compound 149, N-[2-hydroxy-3-(4-n-propylphenoxy)propyl]-1,1-dimethyl-2-(4-methoxyphenyl)ethylamine Hydrochloride] and COc1ccc(CC(C)(C)NCC(O)COc2ccccc2)cc1C (stereo not shown) [Compound 117, N-(2-Hydroxy-3-phenoxypropyl)-1,1-dimethyl-2-(4-methoxy-3-methylphenyl)ethylamine Hydrochloride] cannot be ordered by IC50: under 1 µM for the first, under 1 µM for the second.

COc1ccc(CC(C)(C)NCCCOc2ccccc2)cc1 [Compound 17, N-(3-Phenoxypropyl)-1,1-dimethyl-2-(4-methoxyphenyl)ethylamine Hydrochloride] showed an IC50 of under 50 µM.
